Legend:
A-431 cells [1] = assay: Cellular uptake after pretreatment with endocytosis inhibitors or ATP depletion, flow cytometry; conditions: then peptide 5 µM 90 min; for Cellular uptake with NaN3 and DOG, % of the untreated control: NaN3 500 µM and 2-deoxyglucose 250 mM pretreatment 30 min (ATP depletion), mean
Experimental: The cells were incubated for 24 h at 37 °C. The cells were treated with a serum-free medium as a negative control and with peptide solutions in 5 µM concentration in a serum-free medium for 90 min. After the incubation, the cells were washed, and 100 µL of trypsin was applied for 10 min to eliminate peptides adhered to the membrane and to detach the cells from the plates. Trypsin activity was stopped by adding 800 µL of HPMI buffer (glucose, NaHCO3, NaCl, HEPES, KCl, MgCl2, CaCl2, Na2HPO4·2H2O) containing 10% fetal bovine serum. Cells were then transferred from the plates to FACS tubes. Centrifugation of the cells took place at 216× g at 4 °C for 5 min, and the supernatant was removed. Resuspension of the cells was performed by 250 µL HPMI, followed by fluorescence intensity measurements using a flow cytometer (BDLSR II, BD Bioscience, San Jose, CA, USA). The analysis of the data was performed using FACSDiVa 5.0 software. To study the effect of inhibitors, cells were pretreated with the solution of inhibitors for 30 min, followed by the treatment with the peptide solution at 5 µM for 90 min. Inhibition of macropinocytosis was performed by using 5-(N-Ethyl-N-isopropyl)amiloride (EIPA) (500 µM) [46], of clathrin-mediated endocytosis by using chlorpromazine (CPZ) (300 µM) [47]. The caveolae/lipid raft-mediated endocytosis was prevented with methyl-β-cyclodextrin (mBCD) (36 mM) [48], and colchicine (Col) (200 mM) was employed to determine the role of microtubules and consequently, the significance of pinocytosis [49]. To inhibit all endocytosis routes, sodium azide (NaN3) (500 µM) and 2-Deoxyglucose (DOG) (250 mM) was used.
The following endocytic inhibitors were used: EIPA (5-(N-ethyl-N-isopropyl) amiloride) as an inhibitor of macropinocytosis, chlorpromazine (CPZ) as an inhibitor of a clathrin-mediated endocytosis, and the cholesterol-depleting reagent methyl-beta-cyclodextrin (mBCD) was used to inhibit the caveolae-mediated endocytosis. Finally, colchicine (COL) was applied to inhibit microtubule formation.
A-431 cells were pretreated with the EIPA (500 µM), CPZ (300 µM), mBCD (36 mM), COL (200 mM), NaN3 (500 µM), and DOG (250 mM) for 30 min, followed by treatment with peptides (5 µM) for 90 min. Any significant difference from the control was determined by Student’s t-test (* p < 0.05). Data represent the mean ± standard deviation (SD).The asterisks show a significant difference between the control Pen(desMet) and its derivatives (* p < 0.05, ** p < 0.01, *** p < 0.001).
In addition, the A-431 cells were pretreated with sodium azide (NaN3) and 2-deoxyglucose (DOG) to study the energy-independent pathways. This pretreatment results in ATP depletion and therefore the inhibition of energy-dependent pathways (Figure 3).

A-431 cells [2] = assay: Cellular uptake of Cf-labelled peptides by flow cytometry; format: cell-based; conditions: 5 µM, 90 min, 37 °C, compared with Pen(desMet)
Experimental: The cells were treated with a solution of peptides at 5 µM concentration at 37 °C for 90 min. The measured fluorescence values were corrected with the autofluorescence of the untreated cells. To determine the toxicity of the conjugates, the live/dead cell ratio was calculated.
Figure 2 Comparison of the cellular uptake of the labelled penetratin derivatives into A-431 cells. Cells were incubated with 5 µM peptide solution for 90 min at 37 °C. The fluorescence intensity of the cells was determined by flow cytometry. The fluorescence intensity is relative to Pen(desMet) at 5 µM (100%). Data represent the mean ± standard deviation (SD). Any significant difference to the control was measured using the Student’s t test.

Row | Substance | Cellular uptake with NaN3 and DOG, % of the untreated control (A-431 cells [1]) [%] | Cellular uptake (in words) (A-431 cells [2]) | Effect of azide/DOG treatment on cellular uptake (in words) (A-431 cells [1]; NaN3 500 µM and DOG 250 mM pretreatment 30 min)
1 | Cf-RQIKIWFQNRRKGKK-NH2 [Trp56GlyPen(desMet)] | 50 |  | 
2 | Cf-RQIKI-azaGly-FQNRRKWKK-NH2 [Trp48aGlyPen(desMet), Cf-labelled Pen(desMet) with Trp48 replaced by aza-glycine] |  | dramatically decreased the cellular uptake | 
3 | Cf-RQIKIWFQNRRKWKK-NH2 [Pen(desMet)] | 79 |  | 
4 | Cf-RQIKIWFQNRRK-azaGly-KK-NH2 [Trp56aGlyPen(desMet)] | 97 |  | did not have any effect
5 | Cf-RQIKIGFQNRRKWKK-NH2 [Trp48GlyPen(desMet), Cf-labelled Pen(desMet) with Trp48 replaced by glycine] |  | dramatically decreased the cellular uptake | 

— paper PMC11053488, “Influence of Aza-Glycine Substitution on the Internalization of Penetratin” (Pharmaceutics, 2024)
